Measured values as given in patent US20260013504A1, “HERBICIDAL MIXTURE, HERBICIDAL COMPOSITION, METHOD, USE, AND KITS FOR CONTROLLING UNDESIRABLE VEGETATION” (ADAMA AGAN LTD., priority 2022, published 2026).

Key:
Assay type in all cases: in vivo
Galium aparine = experiment: Pot experiment, soil treatment, control of Galium aparine (fresh weight, Colby)
Bromus japonicus = experiment: Pot experiment, soil treatment, control of Bromus japonicus (fresh weight, Colby); conditions: mixtures: both AIs at these rates, after 35 days
Lolium multiflorum Lamk = experiment: Pot experiment, soil treatment, control of Lolium multiflorum Lamk (fresh weight, Colby); conditions: mixtures: both AIs at these rates, after 35 days
Lithospermum arvense = experiment: Pot experiment, soil treatment, control of Lithospermum arvense (fresh weight, Colby)
Solanum nigrum = experiment: Pot experiment (glass greenhouse), soil treatment, control of Solanum nigrum (fresh weight, Colby)
Aegilops tauschii = experiment: Pot experiment, soil treatment, control of Aegilops tauschii (fresh weight, Colby); conditions: mixtures: both AIs at these rates, after 35 days
[1] = g ai/ha: pyroxasulfone 11.25, fluorochloridone 31.25, aclonifen 150, diflufenican 14.0625, terbutryn 140.625
[2] = g ai/ha: pyroxasulfone 22.5, fluorochloridone 62.5, aclonifen 300, diflufenican 28.125, terbutryn 281.25
[3] = g ai/ha: pyroxasulfone 45, fluorochloridone 125, aclonifen 600, diflufenican 56.25, terbutryn 562.5
[4] = g ai/ha: pyroxasulfone 90, fluorochloridone 250, aclonifen 1200, diflufenican 112.5, terbutryn 1125
[5] = g ai/ha: pyroxasulfone 180, fluorochloridone 500, aclonifen 2400, diflufenican 225, terbutryn 2250
[6] = g ai/ha: pyroxasulfone 360, fluorochloridone 1000, aclonifen 4800, diflufenican 450, terbutryn 4500

Cn1nc(C(F)(F)F)c(CS(=O)(=O)C2=NOC(C)(C)C2)c1OC(F)F [pyroxasulfone, 3-[(5-difluoromethoxy-1-methyl-3-trifluoromethylpyrazol-4-yl)methylsulfonyl]-4,5-dihydro-5,5-di methyl-1,2-isoxazole]
Measured fresh weight survival rate (%) - E (Galium aparine; 11.25 g ai/ha): 67.1% | Measured fresh weight survival rate (%) - E (Galium aparine; 22.5 g ai/ha): 21.9% | Measured fresh weight survival rate (%) - E (Galium aparine; 45 g ai/ha): 4.1% | Measured fresh weight survival rate (%) - E (Galium aparine; 90 g ai/ha): 4.1% | Measured fresh weight survival rate (%) - E (Galium aparine; 180 g ai/ha): 0.0% | inhibition at 11.25 g/ha (Galium aparine; Galium aparine, soil, 11.25 g ai/ha, read-out: Measured fresh weight inhibition rate (%)): 32.9% | inhibition at 22.5 g/ha (Galium aparine; Galium aparine, soil, 22.5 g ai/ha, read-out: Measured fresh weight inhibition rate (%)): 78.1% | inhibition at 45 g/ha (Galium aparine; Galium aparine, soil, 45 g ai/ha, read-out: Measured fresh weight inhibition rate (%)): 95.9% | inhibition at 90 g/ha (Galium aparine; Galium aparine, soil, 90 g ai/ha, read-out: Measured fresh weight inhibition rate (%)): 95.9% | inhibition at 180 g/ha (Galium aparine; Galium aparine, soil, 180 g ai/ha, read-out: Measured fresh weight inhibition rate (%)): 100% | Measured fresh weight inhibition rate (%) (Bromus japonicus; [1]): 74.2% | Measured fresh weight survival rate (%) - E (Bromus japonicus; [1]): 25.8% | Measured fresh weight inhibition rate (%) (Bromus japonicus; [2]): 88.7% | Measured fresh weight survival rate (%) - E (Bromus japonicus; [2]): 11.3% | Measured fresh weight inhibition rate (%) (Bromus japonicus; [3]): 100.0% | Measured fresh weight survival rate (%) - E (Bromus japonicus; [3]): 0.0% | Measured fresh weight inhibition rate (%) (Bromus japonicus; [4]): 100.0% | Measured fresh weight survival rate (%) - E (Bromus japonicus; [4]): 0.0% | Measured fresh weight inhibition rate (%) (Bromus japonicus; [5]): 100.0% | Measured fresh weight survival rate (%) - E (Bromus japonicus; [5]): 0.0% | Measured fresh weight inhibition rate (%) (Lolium multiflorum Lamk; [1]): 68.2% | Measured fresh weight survival rate (%) - E (Lolium multiflorum Lamk; [1]): 31.8% | Measured fresh weight inhibition rate (%) (Lolium multiflorum Lamk; [2]): 94.8% | Measured fresh weight survival rate (%) - E (Lolium multiflorum Lamk; [2]): 5.2% | Measured fresh weight inhibition rate (%) (Lolium multiflorum Lamk; [3]): 100.0% | Measured fresh weight survival rate (%) - E (Lolium multiflorum Lamk; [3]): 0.0% | Measured fresh weight inhibition rate (%) (Lolium multiflorum Lamk; [4]): 100.0% | Measured fresh weight survival rate (%) - E (Lolium multiflorum Lamk; [4]): 0.0% | Measured fresh weight inhibition rate (%) (Lolium multiflorum Lamk; [5]): 100.0% | Measured fresh weight survival rate (%) - E (Lolium multiflorum Lamk; [5]): 0.0% | Measured fresh weight inhibition rate (%) (Lolium multiflorum Lamk; [6]): 100.0% | Measured fresh weight survival rate (%) - E (Lolium multiflorum Lamk; [6]): 0.0% | Measured fresh weight survival rate (%) - E (Lithospermum arvense; 11.25 g ai/ha): 63.8% | Measured fresh weight survival rate (%) - E (Lithospermum arvense; 22.5 g ai/ha): 55.1% | Measured fresh weight survival rate (%) - E (Lithospermum arvense; 45 g ai/ha): 27.5% | Measured fresh weight survival rate (%) - E (Lithospermum arvense; 90 g ai/ha): 21.7% | Measured fresh weight survival rate (%) - E (Lithospermum arvense; 180 g ai/ha): 10.1% | inhibition at 11.25 g/ha (Lithospermum arvense; Buglossoides arvensis, soil, 11.25 g ai/ha, read-out: Measured fresh weight inhibition rate (%)): 36.2% | inhibition at 22.5 g/ha (Lithospermum arvense; Buglossoides arvensis, soil, 22.5 g ai/ha, read-out: Measured fresh weight inhibition rate (%)): 44.9% | inhibition at 45 g/ha (Lithospermum arvense; Buglossoides arvensis, soil, 45 g ai/ha, read-out: Measured fresh weight inhibition rate (%)): 72.5% | inhibition at 90 g/ha (Lithospermum arvense; Buglossoides arvensis, soil, 90 g ai/ha, read-out: Measured fresh weight inhibition rate (%)): 78.3% | inhibition at 180 g/ha (Lithospermum arvense; Buglossoides arvensis, soil, 180 g ai/ha, read-out: Measured fresh weight inhibition rate (%)): 89.9% | Measured fresh weight survival rate (%) - E (Solanum nigrum; 11.25 g ai/ha): 82.4% | Measured fresh weight survival rate (%) - E (Solanum nigrum; 22.5 g ai/ha): 68.2% | Measured fresh weight survival rate (%) - E (Solanum nigrum; 45 g ai/ha): 38.4% | Measured fresh weight survival rate (%) - E (Solanum nigrum; 90 g ai/ha): 8.2% | Measured fresh weight survival rate (%) - E (Solanum nigrum; 180 g ai/ha): 4.7% | inhibition at 22.5 g/ha (Solanum nigrum; Solanum nigrum, soil, read-out: Measured fresh weight inhibition rate (%)): 31.8% | inhibition at 11.25 g/ha (Solanum nigrum; Solanum nigrum, soil, 11.25 g ai/ha, read-out: Measured fresh weight inhibition rate (%)): 17.6% | inhibition at 45 g/ha (Solanum nigrum; Solanum nigrum, soil, 45 g ai/ha, read-out: Measured fresh weight inhibition rate (%)): 61.6% | inhibition at 90 g/ha (Solanum nigrum; Solanum nigrum, soil, 90 g ai/ha, read-out: Measured fresh weight inhibition rate (%)): 91.8% | inhibition at 180 g/ha (Solanum nigrum; Solanum nigrum, soil, 180 g ai/ha, read-out: Measured fresh weight inhibition rate (%)): 95.3% | Measured fresh weight inhibition rate (%) (Aegilops tauschii; [1]): 4.9% | Measured fresh weight survival rate (%) - E (Aegilops tauschii; [1]): 95.1% | Measured fresh weight inhibition rate (%) (Aegilops tauschii; [2]): 11.6% | Measured fresh weight survival rate (%) - E (Aegilops tauschii; [2]): 88.4% | Measured fresh weight inhibition rate (%) (Aegilops tauschii; [3]): 47.6% | Measured fresh weight survival rate (%) - E (Aegilops tauschii; [3]): 52.4% | Measured fresh weight inhibition rate (%) (Aegilops tauschii; [4]): 50.0% | Measured fresh weight survival rate (%) - E (Aegilops tauschii; [4]): 50.0% | Measured fresh weight inhibition rate (%) (Aegilops tauschii; [5]): 78.7% | Measured fresh weight survival rate (%) - E (Aegilops tauschii; [5]): 21.3% | Measured fresh weight inhibition rate (%) (Aegilops tauschii; [6]): 97.6% | Measured fresh weight survival rate (%) - E (Aegilops tauschii; [6]): 2.4%

CCNc1nc(NC(C)(C)C)nc(SC)n1 [terbutryn, N-(1,1-dimethylethyl)-N′-ethyl-6-(methylthio)-1,3,5-triazine-2,4-diamine]
Measured fresh weight survival rate (%) - E (Galium aparine; 140.625 g ai/ha): 80.8% | Measured fresh weight survival rate (%) - E (Galium aparine; 281.25 g ai/ha): 53.4% | Measured fresh weight survival rate (%) - E (Galium aparine; 562.5 g ai/ha): 9.6% | Measured fresh weight survival rate (%) - E (Galium aparine; 1125 g ai/ha): 8.2% | Measured fresh weight survival rate (%) - E (Galium aparine; 2250 g ai/ha): 0.0% | inhibition at 140.625 g/ha (Galium aparine; Galium aparine, soil, 140.625 g ai/ha, read-out: Measured fresh weight inhibition rate (%)): 19.2% | inhibition at 281.25 g/ha (Galium aparine; Galium aparine, soil, 281.25 g ai/ha, read-out: Measured fresh weight inhibition rate (%)): 46.6% | inhibition at 562.5 g/ha (Galium aparine; Galium aparine, soil, 562.5 g ai/ha, read-out: Measured fresh weight inhibition rate (%)): 90.4% | inhibition at 1125 g/ha (Galium aparine; Galium aparine, soil, 1125 g ai/ha, read-out: Measured fresh weight inhibition rate (%)): 91.8% | inhibition at 2250 g/ha (Galium aparine; Galium aparine, soil, 2250 g ai/ha, read-out: Measured fresh weight inhibition rate (%)): 100% | Measured fresh weight inhibition rate (%) (Bromus japonicus; [1]): 100.0% | Measured fresh weight survival rate (%) - E (Bromus japonicus; [1]): 0.0% | Measured fresh weight inhibition rate (%) (Bromus japonicus; [2]): 100.0% | Measured fresh weight survival rate (%) - E (Bromus japonicus; [2]): 0.0% | Measured fresh weight inhibition rate (%) (Bromus japonicus; [3]): 100.0% | Measured fresh weight survival rate (%) - E (Bromus japonicus; [3]): 0.0% | Measured fresh weight inhibition rate (%) (Bromus japonicus; [4]): 100.0% | Measured fresh weight survival rate (%) - E (Bromus japonicus; [4]): 0.0% | Measured fresh weight inhibition rate (%) (Bromus japonicus; [5]): 100.0% | Measured fresh weight survival rate (%) - E (Bromus japonicus; [5]): 0.0% | Measured fresh weight inhibition rate (%) (Lolium multiflorum Lamk; [1]): 94.3% | Measured fresh weight survival rate (%) - E (Lolium multiflorum Lamk; [1]): 5.7% | Measured fresh weight inhibition rate (%) (Lolium multiflorum Lamk; [2]): 94.8% | Measured fresh weight survival rate (%) - E (Lolium multiflorum Lamk; [2]): 5.2% | Measured fresh weight inhibition rate (%) (Lolium multiflorum Lamk; [3]): 100.0% | Measured fresh weight survival rate (%) - E (Lolium multiflorum Lamk; [3]): 0.0% | Measured fresh weight inhibition rate (%) (Lolium multiflorum Lamk; [4]): 100.0% | Measured fresh weight survival rate (%) - E (Lolium multiflorum Lamk; [4]): 0.0% | Measured fresh weight inhibition rate (%) (Lolium multiflorum Lamk; [5]): 100.0% | Measured fresh weight survival rate (%) - E (Lolium multiflorum Lamk; [5]): 0.0% | Measured fresh weight inhibition rate (%) (Lolium multiflorum Lamk; [6]): 100.0% | Measured fresh weight survival rate (%) - E (Lolium multiflorum Lamk; [6]): 0.0% | Measured fresh weight survival rate (%) - E (Lithospermum arvense; 140.625 g ai/ha): 1.4% | Measured fresh weight survival rate (%) - E (Lithospermum arvense; 281.25 g ai/ha): 1.4% | Measured fresh weight survival rate (%) - E (Lithospermum arvense; 562.5 g ai/ha): 0.0% | Measured fresh weight survival rate (%) - E (Lithospermum arvense; 1125 g ai/ha): 0.0% | Measured fresh weight survival rate (%) - E (Lithospermum arvense; 2250 g ai/ha): 0.0% | inhibition at 140.625 g/ha (Lithospermum arvense; Buglossoides arvensis, soil, 140.625 g ai/ha, read-out: Measured fresh weight inhibition rate (%)): 98.6% | inhibition at 281.25 g/ha (Lithospermum arvense; Buglossoides arvensis, soil, 281.25 g ai/ha, read-out: Measured fresh weight inhibition rate (%)): 98.6% | inhibition at 562.5 g/ha (Lithospermum arvense; Buglossoides arvensis, soil, 562.5 g ai/ha, read-out: Measured fresh weight inhibition rate (%)): 100% | inhibition at 1125 g/ha (Lithospermum arvense; Buglossoides arvensis, soil, 1125 g ai/ha, read-out: Measured fresh weight inhibition rate (%)): 100% | inhibition at 2250 g/ha (Lithospermum arvense; Buglossoides arvensis, soil, 2250 g ai/ha, read-out: Measured fresh weight inhibition rate (%)): 100% | Measured fresh weight survival rate (%) - E (Solanum nigrum; 140.625 g ai/ha): 57.6% | Measured fresh weight survival rate (%) - E (Solanum nigrum; 281.25 g ai/ha): 36.1% | Measured fresh weight survival rate (%) - E (Solanum nigrum; 562.5 g ai/ha): 0.4% | Measured fresh weight survival rate (%) - E (Solanum nigrum; 1125 g ai/ha): 0.0% | Measured fresh weight survival rate (%) - E (Solanum nigrum; 2250 g ai/ha): 0.0% | inhibition at 140.625 g/ha (Solanum nigrum; Solanum nigrum, soil, 140.625 g ai/ha, read-out: Measured fresh weight inhibition rate (%)): 42.4% | inhibition at 281.25 g/ha (Solanum nigrum; Solanum nigrum, soil, 281.25 g ai/ha, read-out: Measured fresh weight inhibition rate (%)): 63.9% | inhibition at 562.5 g/ha (Solanum nigrum; Solanum nigrum, soil, 562.5 g ai/ha, read-out: Measured fresh weight inhibition rate (%)): 99.6% | inhibition at 1125 g/ha (Solanum nigrum; Solanum nigrum, soil, 1125 g ai/ha, read-out: Measured fresh weight inhibition rate (%)): 100% | inhibition at 2250 g/ha (Solanum nigrum; Solanum nigrum, soil, 2250 g ai/ha, read-out: Measured fresh weight inhibition rate (%)): 100% | Measured fresh weight inhibition rate (%) (Aegilops tauschii; [1]): 8.5% | Measured fresh weight survival rate (%) - E (Aegilops tauschii; [1]): 91.5% | Measured fresh weight inhibition rate (%) (Aegilops tauschii; [2]): 12.8% | Measured fresh weight survival rate (%) - E (Aegilops tauschii; [2]): 87.2% | Measured fresh weight inhibition rate (%) (Aegilops tauschii; [3]): 46.3% | Measured fresh weight survival rate (%) - E (Aegilops tauschii; [3]): 53.7% | Measured fresh weight inhibition rate (%) (Aegilops tauschii; [4]): 97.6% | Measured fresh weight survival rate (%) - E (Aegilops tauschii; [4]): 2.4% | Measured fresh weight inhibition rate (%) (Aegilops tauschii; [5]): 96.3% | Measured fresh weight survival rate (%) - E (Aegilops tauschii; [5]): 3.7% | Measured fresh weight inhibition rate (%) (Aegilops tauschii; [6]): 100.0% | Measured fresh weight survival rate (%) - E (Aegilops tauschii; [6]): 0.0%
